Key:
Assay type in all cases: cell-based
human P2X3 receptor [1] = molecular target: T1, human P2X3 receptor (Homo sapiens, UniProt P56373); assay: Intracellular calcium measurement, antagonist activity at human P2X3 receptors (hP2X3 1321N1), Fluo8; set-up: expressed in transfected cells; host or cells: human astrocytoma 1321N1 (1312N1 [sic]); conditions: column 3); 1321N1 cells, human P2X3, Fluo8, agonist ATP at EC50
T1 sequence (P56373 1-397): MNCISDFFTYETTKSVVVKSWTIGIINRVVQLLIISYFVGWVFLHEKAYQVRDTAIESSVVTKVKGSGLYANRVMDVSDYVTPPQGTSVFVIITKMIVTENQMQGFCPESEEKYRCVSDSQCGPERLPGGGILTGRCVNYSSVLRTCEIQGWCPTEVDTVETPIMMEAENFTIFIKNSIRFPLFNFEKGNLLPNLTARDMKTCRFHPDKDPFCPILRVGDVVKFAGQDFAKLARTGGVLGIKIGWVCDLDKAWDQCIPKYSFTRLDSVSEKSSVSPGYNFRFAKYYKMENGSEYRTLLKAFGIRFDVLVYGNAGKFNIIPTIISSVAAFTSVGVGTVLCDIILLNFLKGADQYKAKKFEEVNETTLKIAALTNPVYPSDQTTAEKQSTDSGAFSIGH
Outline: (§1)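 Antagonism was assessed by decrease of the Fluo8 calcium signal after ATP challenge, with ATP dosed at the EC50 of whichever receptor was tested. Stable 1321N1 astrocytoma lines expressed either human P2X3 or both P2X2 and P2X3, and were dye-loaded 60 min before a 10 min compound incubation.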

human P2X3 receptor [2] = molecular target: T1, human P2X3 receptor; assay: Intracellular calcium measurement to assess antagonist activity at human P2X3 receptors (hP2X3 CHO), photina luminescence; set-up: expressed in transfected cells; host or cells: Chinese hamster ovary (CHO) cells; conditions: column 2), CHO cells, agonist α,β-methylene-ATP at EC50
Outline: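 Antagonism read as lowered photina luminescence after agonist stimulation in recombinant hP2X3/photina CHO cells. Cells seeded one day earlier (30 °C) and reconstituted with 5 μg/ml coelenterazine in 2 mM Ca-tyrode buffer for 3 h at 37 °C before measurement.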

human P2X2/3 receptors = molecular target: T2, human P2X2/3 receptors (Homo sapiens, UniProt P56373+Q9UBL9); assay: Intracellular calcium measurement, antagonist activity at human P2X2/3 receptors (hP2X23 1321N1), Fluo8; conditions: for IC50: column 4); 1321N1 cells, human P2X2/3, Fluo8, agonist ATP at EC50; read-out: 4) hP2X2/3 IC50 [nM] (1321N1); for hP2X23/hP2X3* Selectivity (1321N1): ratio of column 4) hP2X2/3 to column 3) hP2X3, 1321N1
T2 construct: expressed in transfected cells; host or cells: human astrocytoma 1321N1 (1312N1 [sic])
T2 sequence (P56373 1-397): T1 sequence (P56373 1-397)
T2 sequence (Q9UBL9 1-471): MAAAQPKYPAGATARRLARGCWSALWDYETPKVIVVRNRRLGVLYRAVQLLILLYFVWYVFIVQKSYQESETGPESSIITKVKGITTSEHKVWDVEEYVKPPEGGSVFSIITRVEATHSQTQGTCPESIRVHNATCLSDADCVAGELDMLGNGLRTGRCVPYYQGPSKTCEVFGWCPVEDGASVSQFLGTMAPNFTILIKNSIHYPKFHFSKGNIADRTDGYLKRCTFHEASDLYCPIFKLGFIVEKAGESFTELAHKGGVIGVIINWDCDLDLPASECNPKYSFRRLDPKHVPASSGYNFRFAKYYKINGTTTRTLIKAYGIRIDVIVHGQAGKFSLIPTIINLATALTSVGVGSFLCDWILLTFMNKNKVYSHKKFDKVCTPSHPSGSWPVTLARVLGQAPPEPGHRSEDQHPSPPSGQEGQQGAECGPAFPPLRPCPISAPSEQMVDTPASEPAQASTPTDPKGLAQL
Outline: as §1

Q: How did the IC50 (human P2X3 receptor [1]) turn out when `CCc1cc2n(CC(=O)Nc3ccc(F)cn3)c3c(c(=O)n2n1)CN(CC1CCCO1)C3=O` (racemic) [Example 77, 2-{2-ethyl-5,8-dioxo-6-[(±)-tetrahydrofuran-2-ylmethyl]-5,6,7,8-tetrahydro-4H-pyrazolo[1,5-a]pyrrolo[3,4-d]pyrimidin-4-yl}-N-(5-fluoropyridin-2-yl)acetamide] was run?
A: 185 nM

Q: What about the IC50 (human P2X3 receptor [2]) of the same compound?
A: 102 nM

Q: And the IC50 (human P2X2/3 receptors)?
A: 9050 nM

Q: And the “hP2X23/hP2X3* Selectivity (1321N1)” value (human P2X2/3 receptors)?
A: 49

Q: What does the source list for `CCc1cc2n(CC(=O)Nc3ccc(F)cn3)c3c(c(=O)n2n1)CN(Cc1ccc(F)cc1)C3=O` [Example 112]?
A: IC50 (human P2X3 receptor [1]): 11 nM; IC50 (human P2X3 receptor [2]): 17 nM; IC50 (human P2X2/3 receptors): 2550 nM; hP2X23/hP2X3* Selectivity (1321N1) (human P2X2/3 receptors): 232

Q: Which results are given for `CCc1cc2n(CC(=O)Nc3ccc(F)cn3)c3c(c(=O)n2n1)CN(CC1CCN(C(=O)OC(C)(C)C)CC1)C3=O` [Example 89]?
A: IC50 (human P2X3 receptor [1]): 135 nM; IC50 (human P2X3 receptor [2]): 64 nM; IC50 (human P2X2/3 receptors): 6550 nM; hP2X23/hP2X3* Selectivity (1321N1) (human P2X2/3 receptors): 49

Q: What does the source list for `COCC(=O)Nc1cc2n(CC(=O)Nc3ccc(F)cn3)c3c(c(=O)n2n1)CN(C(C)C)C3=O` [Example 285]?
A: IC50 (human P2X3 receptor [1]): 143 nM; IC50 (human P2X3 receptor [2]): 110 nM; IC50 (human P2X2/3 receptors): 12000 nM; hP2X23/hP2X3* Selectivity (1321N1) (human P2X2/3 receptors): 84

Q: What does the source list for `CC(C)N1Cc2c(n(CC(=O)Nc3ccc(F)cn3)c3cc(C(=O)NCC(F)F)nn3c2=O)C1=O` [Example 184]?
A: IC50 (human P2X3 receptor [1]): 46 nM; IC50 (human P2X3 receptor [2]): 38 nM; IC50 (human P2X2/3 receptors): 3200 nM; hP2X23/hP2X3* Selectivity (1321N1) (human P2X2/3 receptors): 70

Q: Which results are given for `CCc1cc2n(CC(=O)Nc3ccc(F)cn3)c3c(c(=O)n2n1)CN(C[C@H]1CN(CCC(F)(F)F)CCO1)C3=O` [Example 259]?
A: IC50 (human P2X3 receptor [1]): 71 nM; IC50 (human P2X3 receptor [2]): 33 nM; IC50 (human P2X2/3 receptors): 1170 nM; hP2X23/hP2X3* Selectivity (1321N1) (human P2X2/3 receptors): 16

Q: `CCc1cc2n(CC(=O)Nc3ccc(Cl)cn3)c3c(c(=O)n2n1)CN(CC1CCCO1)C3=O` (stereo not drawn) [Example 62] was tested. Which IC50 (human P2X3 receptor [1]) did it give?
A: 240 nM

Q: And the IC50 (human P2X3 receptor [2])?
A: 55 nM

Q: What about the IC50 (human P2X2/3 receptors) of the same compound?
A: 5150 nM

Q: And the “hP2X23/hP2X3* Selectivity (1321N1)” value (human P2X2/3 receptors)?
A: 21

Q: Which results are given for `CCc1cc2n(CC(=O)Nc3ccc(F)cn3)c3c(c(=O)n2n1)CN(C[C@@H]1CN(C(=O)OC(C)(C)C)CCO1)C3=O` [Example 90, Tert-butyl(2R)-2-{[2-ethyl-4-{2-[(5-fluoropyridin-2-yl)amino]-2-oxoethyl}-5,8-dioxo-5,8-dihydro-4H-pyrazolo[1,5-a]pyrrolo[3,4-d]pyrimidin-6(7H)-yl]methyl}morpholine-4-carboxylate]?
A: IC50 (human P2X3 receptor [1]): 130 nM; IC50 (human P2X3 receptor [2]): 94 nM; IC50 (human P2X2/3 receptors): 3450 nM; hP2X23/hP2X3* Selectivity (1321N1) (human P2X2/3 receptors): 27

Q: Which IC50 (human P2X3 receptor [1]) does the source give for `CCc1cc2n(CC(=O)Nc3ccc(F)cn3)c3c(c(=O)n2n1)CN(C[C@H]1CN(C2CCC2)CCO1)C3=O` [Example 257] here?
A: 57 nM

Q: What about the IC50 (human P2X3 receptor [2]) of the same compound?
A: 54 nM

Q: And the IC50 (human P2X2/3 receptors)?
A: 660 nM

Q: And the “hP2X23/hP2X3* Selectivity (1321N1)” value (human P2X2/3 receptors)?
A: 12

Q: For `CCc1cc2n(CC(=O)Nc3ccc(Cl)cn3)c3c(c(=O)n2n1)CN(CC1CCOC1)C3=O` (stereo not drawn) [Example 60], which IC50 (human P2X3 receptor [1]) is on record?
A: 480 nM

Q: What about the IC50 (human P2X3 receptor [2]) of the same compound?
A: 105 nM

Q: What about the IC50 (human P2X2/3 receptors) of the same compound?
A: > 19800 nM

Q: What about the “hP2X23/hP2X3* Selectivity (1321N1)” value (human P2X2/3 receptors) of the same compound?
A: >41

Q: With `CCc1cc2n(CC(=O)Nc3ccc(C)cn3)c3c(c(=O)n2n1)CN(CC1CCCO1)C3=O` (stereo not drawn) [Example 63] as the compound, how does the IC50 (human P2X3 receptor [1]) read?
A: 370 nM

Q: What about the IC50 (human P2X3 receptor [2]) of the same compound?
A: 355 nM

Q: What about the IC50 (human P2X2/3 receptors) of the same compound?
A: 7400 nM

Q: And the “hP2X23/hP2X3* Selectivity (1321N1)” value (human P2X2/3 receptors)?
A: 20

Q: With `Cc1ccc(NC(=O)Cn2c3c(c(=O)n4nc(C5CCOCC5)cc24)CN(C(C)C)C3=O)nc1` [Example 59] as the compound, how does the IC50 (human P2X3 receptor [1]) read?
A: 145 nM

Q: And the IC50 (human P2X3 receptor [2])?
A: 83 nM

Q: And the IC50 (human P2X2/3 receptors)?
A: 13000 nM

Q: And the “hP2X23/hP2X3* Selectivity (1321N1)” value (human P2X2/3 receptors)?
A: 90

Q: For `CCc1cc2n(CC(=O)Nc3ccc(F)cn3)c3c(c(=O)n2n1)CN(C[C@@H]1CCCO1)C3=O` [Example 279, 2-{2-ethyl-5,8-dioxo-6-[(2S)-tetrahydrofuran-2-ylmethyl]-5,6,7,8-tetrahydro-4H-pyrazolo[1,5-a]pyrrolo[3,4-d]pyrimidin-4-yl}-N-(5-fluoropyridin-2-yl)acetamide], which IC50 (human P2X3 receptor [1]) is on record?
A: 270 nM

Q: And the IC50 (human P2X3 receptor [2])?
A: 210 nM

Q: And the IC50 (human P2X2/3 receptors)?
A: > 23000 nM

Q: What about the “hP2X23/hP2X3* Selectivity (1321N1)” value (human P2X2/3 receptors) of the same compound?
A: >85

Q: How did the IC50 (human P2X3 receptor [1]) turn out when `CC(C)N1Cc2c(n(CC(=O)Nc3ccc(F)cn3)c3cc(C4CCN(C)CC4)nn3c2=O)C1=O` [Example 251] was run?
A: 195 nM

Q: And the IC50 (human P2X3 receptor [2])?
A: 235 nM

Q: What about the IC50 (human P2X2/3 receptors) of the same compound?
A: > 32000 nM

Q: And the “hP2X23/hP2X3* Selectivity (1321N1)” value (human P2X2/3 receptors)?
A: >164

Q: With `CCc1cc2n(CC(=O)Nc3ccc(F)cn3)c3c(c(=O)n2n1)CN(C1CCN(C(=O)OC(C)(C)C)CC1)C3=O` [Example 76] as the compound, how does the IC50 (human P2X3 receptor [1]) read?
A: 1670 nM

Q: And the IC50 (human P2X3 receptor [2])?
A: 470 nM

Q: And the IC50 (human P2X2/3 receptors)?
A: > 21500 nM

Q: And the “hP2X23/hP2X3* Selectivity (1321N1)” value (human P2X2/3 receptors)?
A: >13

Source: patent US11319324B2, “Pyrazolo-pyrrolo-pyrimidine-dione derivatives as P2X3 inhibitors” (Bayer Aktiengesellschaft, priority 2017, dated 2022)
